Assay results reported in patent US20250188102A1, “TRIAZINE COMPOUND, INTERMEDIATE THEREOF, PREPARATION METHOD THEREFOR AND USE THEREOF” (priority 2022, published 2025).
Where two headings read alike, the source gives them in different places.

How the values were obtained:
[1] = in vitro; format: cell-based; details: human
Procedure: (§1) Nine cell lines originated from different human tissues (Table 2) are selected to evaluate the cytotoxicity of the tested compounds. Sorafenib or Taxol are used as cytotoxic control compounds. The cells and compounds are added to the 96-well test plate. Cells are cultured in culture medium containing 10% FBS, 5% CO2 and 37° C. for 3 days, and then cell viability was detected by CellTiter-Glo reagent. The raw data are used for compound cytotoxicity calculations. The dose-response curves of the compounds are analyzed by GraphPad Prism software and CC50 values are calculated. The compound will be tested at 8 concentration points, 3-fold series dilution, and 3-compound pores.

[2] = in vitro; format: cell-based; details: human; remark: listed apart in the source
Procedure: as §1

[3] = in vitro; format: cell-based; details: human; remark: listed apart in the source
Procedure: as §1

[4] = in vitro; format: cell-based; details: human; remark: listed apart in the source
Procedure: as §1

[5] = in vitro; format: cell-based; details: human; remark: listed apart in the source
Procedure: as §1

[6] = in vitro; format: cell-based; details: human; remark: listed apart in the source
Procedure: as §1

[7] = in vitro; format: cell-based; details: human; remark: listed apart in the source
Procedure: as §1

[8] = in vitro; format: cell-based; details: human; remark: listed apart in the source
Procedure: as §1

[9] = in vitro; format: cell-based; details: human; remark: listed apart in the source
Procedure: as §1

[10] = system: Huh7 cells
[11] = system: HepG2 cells
[12] = in vivo; details: male, Sprague-Dawley, rat; for AUC(0-inf): AUC0-∞; for half-life: T1/2
[13] = in vitro; details: human
[14] = system: SARS-CoV-2 strain; assay: microbe, parasite or virus in culture; details: Severe acute respiratory syndrome coronavirus 2, read-out: EC50 of SARS-CoV-2 strain
[15] = target: HKU1 Mpro protease (Human coronavirus HKU1 (isolate N1) (HCoV-HKU1), UniProt P0C6X2); format: biochemical; details: read-out: Enzymatic Determination of IC50 of compound by Mpro, HKU1
Sequence of HKU1 Mpro protease (P0C6X2 3335-3637 limits assumed): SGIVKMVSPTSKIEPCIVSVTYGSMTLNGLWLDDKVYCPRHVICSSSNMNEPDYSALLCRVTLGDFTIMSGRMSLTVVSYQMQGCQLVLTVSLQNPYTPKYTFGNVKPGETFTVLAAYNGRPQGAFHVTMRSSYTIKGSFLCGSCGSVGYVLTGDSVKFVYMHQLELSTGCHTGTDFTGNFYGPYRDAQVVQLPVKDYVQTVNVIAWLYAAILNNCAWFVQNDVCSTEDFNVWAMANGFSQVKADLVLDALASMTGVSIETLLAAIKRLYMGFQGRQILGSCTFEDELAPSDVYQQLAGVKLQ

[16] = target: NL63 Mpro protease (Human coronavirus NL63 (HCoV-NL63), UniProt P0C6X5); assay: Mpro enzymatic assay, other human coronaviruses: NL63; format: biochemical; details: read-out: Enzymatic Determination of IC50 of compound by Mpro, NL63
Sequence of NL63 Mpro protease (P0C6X5 2940-3242 limits assumed): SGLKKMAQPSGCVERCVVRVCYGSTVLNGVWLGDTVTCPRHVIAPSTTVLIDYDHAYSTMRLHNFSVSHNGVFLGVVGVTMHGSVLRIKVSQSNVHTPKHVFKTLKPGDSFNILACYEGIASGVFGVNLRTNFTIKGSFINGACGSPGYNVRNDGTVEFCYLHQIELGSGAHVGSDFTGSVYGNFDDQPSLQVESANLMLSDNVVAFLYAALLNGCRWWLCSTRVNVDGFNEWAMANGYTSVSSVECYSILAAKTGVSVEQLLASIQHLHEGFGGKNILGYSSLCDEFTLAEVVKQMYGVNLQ

[17] = target: MERS Mpro protease (Middle East respiratory syndrome-related coronavirus (isolate United Kingdom/H123990006/2012) (MERS-CoV) (Betacoronavirus England 1), UniProt K9N7C7); assay: biochemical
Sequence of MERS Mpro protease (K9N7C7 3248-3553 limits assumed): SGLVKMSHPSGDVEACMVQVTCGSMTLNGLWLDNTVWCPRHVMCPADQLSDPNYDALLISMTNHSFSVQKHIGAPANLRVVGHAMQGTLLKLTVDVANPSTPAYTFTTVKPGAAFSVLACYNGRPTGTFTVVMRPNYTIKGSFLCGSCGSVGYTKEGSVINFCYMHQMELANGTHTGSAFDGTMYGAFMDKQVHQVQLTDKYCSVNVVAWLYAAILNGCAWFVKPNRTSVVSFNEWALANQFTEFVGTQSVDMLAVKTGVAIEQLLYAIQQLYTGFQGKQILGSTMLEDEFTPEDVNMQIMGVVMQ

[18] = system: SARS-CoV-2; details: read-out: viral inhibitory activity EC50, cited from earlier work
[19] = in vitro; format: in vitro ADME; details: rat, hepatocytes
[20] = in vitro; format: in vitro ADME, people; details: human, hepatocytes
[21] = liver microsomes; rat
[22] = in vitro; details: rat, microsomes
[23] = Colo-205, 3 days, read-out: CC50
[24] = CCRF-CEM, 3 days, read-out: CC50
[25] = rat, stated before the oral figures (intravenous per Table 11)

Structure (SMILES): CNC(=O)c1cc(Oc2ccc(NC(=O)Nc3ccc(Cl)c(C(F)(F)F)c3)cc2)ccn1 [Sorafenib]
- CC50 [1, 23]: 8.72 µM
- CC50 ([2]; HepG2, 3 days, read-out: CC50): 5.32 µM
- CC50 ([3]; HEK293, 3 days, read-out: CC50): 5.58 µM
- CC50 ([4]; MRC-5, 3 days, read-out: CC50): 13.8 µM

Structure (SMILES): O=C(O)/C=C/C(=O)O.[2H]C([2H])([2H])n1cnc(Cn2c(=O)[nH]/c(=N\c3cc4cn(C)nc4cc3Cl)n(Cc3cc(F)c(F)cc3F)c2=O)n1 [SHEN211]
- CC50 [1, 23]: > 100 µM
- CC50 ([2]; HepG2, 3 days, read-out: CC50): > 100 µM
- CC50 ([3]; HEK293, 3 days, read-out: CC50): > 100 µM
- CC50 ([4]; MRC-5, 3 days, read-out: CC50): > 100 µM
- CC50 ([5]; A375, 3 days, read-out: CC50): > 100 µM
- CC50 ([6]; Molt-4, 3 days, read-out: CC50): > 100 µM
- CC50 ([7]; HEp2, 3 days, read-out: CC50): > 100 µM
- CC50 ([8]; HIHeLa, 3 days, read-out: CC50): > 100 µM
- CC50 [9, 24]: > 100 µM
- CC50 [10]: >1 microns
- mitochondrial toxicity to human HepG2 cells [11]: more than 200 μM
- difference between the CC50 and EC50 ([11]; human): more than 476 times
- AUC(0-inf) ([12]; po, 5 mg/kg, SD rat): 45500 ng·h/mL
- Cmax ([12]; po, 5 mg/kg, SD rat): 4710 ng/mL
- half-life ([12]; po, 5 mg/kg): 3.22 h
- Tmax ([12]; po, 5 mg/kg, SD rat): 2 h
- CC50 ([13]; galactose culture HepG2 CC50): 206 µM
- CC50 ([13]; glucose culture HepG2 CC50): 202 µM
- EC50 [14]: 0.084 to 0.21 µM

Structure (SMILES): CC(C)C[C@H](NC(=O)OCc1ccccc1)C(=O)N[C@@H](CC1CCNC1=O)C(O)S(=O)(=O)O (some centres unmarked) [GC-376]
- IC50 [15]: 0.022 µM
- IC50 [16]: 0.107 µM

Structure (SMILES): Cn1cnc(Cn2c(=O)[nH]/c(=N\c3cc4nn(C)cc4cc3Cl)n(Cc3cc(F)c(F)cc3F)c2=O)n1 [CVL201]
- IC50 [17]: 4960 µM
- CC50 [1]: > 100 µM
- CC50 [2]: > 100 µM
- CC50 [3]: > 100 µM
- CC50 [4]: > 100 µM
- CC50 [5]: > 100 µM
- CC50 [6]: > 100 µM
- CC50 [7]: > 100 µM
- CC50 [8]: > 100 µM
- CC50 [9]: > 100 µM
- CC50 [10]: >1 microns
- AUC(0-inf) ([12]; po, 5 mg/kg): 53900 ng·h/mL
- Cmax ([12]; po, 5 mg/kg): 4520 ng/mL
- half-life ([12]; po, 5 mg/kg): 2.89 h
- Tmax ([12]; po, 5 mg/kg): 4.67 h

Structure (SMILES): [2H]C([2H])([2H])n1cnc(Cn2c(=O)nc(Nc3cc4cn(C([2H])([2H])[2H])nc4cc3Cl)n(Cc3cc(F)c(F)cc3F)c2=O)n1 [Compound I-24]
- AUC(0-inf) ([12]; po, 5 mg/kg, SD rat): 58300 ng·h/mL
- Cmax ([12]; po, 5 mg/kg, SD rat): 5210 ng/mL
- half-life ([12]; po, 5 mg/kg): 3.51 h
- Tmax ([12]; po, 5 mg/kg, SD rat): 4 h

Structure (SMILES): CCC(CC)COC(=O)[C@H](C)N[P@](=O)(OC[C@H]1O[C@@](C#N)(c2ccc3c(N)ncnn23)[C@H](O)[C@@H]1O)Oc1ccccc1 [Remdesivir]
- CC50 [10]: >1 microns

Structure (SMILES): CC(=O)O[C@H]1C(=O)[C@@]2(C)[C@H]([C@H](OC(=O)c3ccccc3)[C@]3(O)C[C@H](OC(=O)[C@H](O)[C@@H](NC(=O)c4ccccc4)c4ccccc4)C(C)=C1C3(C)C)[C@]1(OC(C)=O)CO[C@@H]1C[C@@H]2O [Pacitaxel]
- CC50 ([5]; A375, 3 days, read-out: CC50): 0.0089 µM
- CC50 ([6]; Molt-4, 3 days, read-out: CC50): 0.0027 µM
- CC50 ([7]; HEp2, 3 days, read-out: CC50): 0.03 µM
- CC50 ([8]; HIHeLa, 3 days, read-out: CC50): 0.02 µM
- CC50 [9, 24]: 0.0034 µM

Structure (SMILES): C=C(C)[C@H]1Cc2c(ccc3c2O[C@@H]2COc4cc(OC)c(OC)cc4[C@@H]2C3=O)O1 [Rotenone, reference compound]
- ratio (CC50 Glu/CC50 Gal) ([11]; human): 91.7
- CC50 ([13]; galactose culture HepG2 CC50): 0.03 µM
- CC50 ([13]; glucose culture HepG2 CC50): 2.33 µM

Structure (SMILES): CC(C)(C)[C@H](NC(=O)C(F)(F)F)C(=O)N1C[C@H]2[C@@H]([C@H]1C(=O)N[C@H](C#N)C[C@@H]1CCNC1=O)C2(C)C [PF-07321332]
- EC50 ([18]; A549 cells expressing ACE2 protein): 0.056 µM
- EC50 ([18]; HeLa cells expressing ACE2 protein): 0.099 µM
- EC50 ([18]; human airway epithelial cells): 0.062 µM

Structure (SMILES): [2H]C([2H])(c1ncn(C)n1)n1c(=O)nc(Nc2cc3cn(C)nc3cc2Cl)n(Cc2cc(F)c(F)cc2F)c1=O [Compound I-3]
- half-life at 0.5 μM [19]: 8.28 h
- half-life at 0.5 μM [20]: 204 h

Structure (SMILES): C[C@]12CC[C@H]3[C@@H](CCC4=CC(=O)CC[C@@]43C)[C@@H]1CC[C@@H]2O [Testosterone]
- Cl [21]: 3.28 L/h/kg
- Cla [21]: 6112.8 µL/min/mg
- Clape [21]: 660.186 L/h/kg
- half-life [22]: 36 s

Structure (SMILES): [2H]C([2H])([2H])n1cnc(Cn2c(=O)[nH]/c(=N\c3cc4cn(C)nc4cc3Cl)n(Cc3cc(F)c(F)cc3F)c2=O)n1 [SHEN212]
- AUC0-∞ (SD rat, PO, 5.0 mg/kg): 62126.14 ng·h/mL
- Tmax (SD rat, PO, 5.0 mg/kg): 3.67 h
- AUC compared with S-217 fumaric acid eutectic group (rat, PO): 115%
- AUC compared with S-217622 fumaric acid coproduct combined with niacinamide group (rat, PO): 124%
- Cmax compared with S-217 fumaric acid eutectic group (rat, PO): 132%
- Cmax compared with S-217622 fumaric acid coproduct combined with niacinamide group (rat, PO): 123%
- T1/2 compared with S-217622 fumaric acid coproduct combined with niacinamide group (rat, PO): 121%

Structure (SMILES): [2H]C([2H])([2H])n1cc2cc(Nc3nc(=O)n(Cc4ncn(C)n4)c(=O)n3Cc3cc(F)c(F)cc3F)c(Cl)cc2n1 [Compound I-5]
- half-life at 0.5 μM [20]: 29.9 h

Structure (SMILES): [2H]C([2H])([2H])n1cnc(Cn2c(=O)[nH]/c(=N\c3cc4cn(C)nc4cc3Cl)n(Cc3cc(F)c(F)cc3F)c2=O)n1 [Compound I-2]
- half-life at 0.5 μM [19]: 89 h
- AUC compared with S-217622 (rat, after oral administration): 144%
- Cmax compared with S-217622 (rat, after oral administration): 145%
- AUC compared with S-217622 [25]: 198%
- Cmax compared with S-217622 [25]: 125%
- T1/2 compared with S-217622 [25]: 124%
- AUC(0-inf) ([12]; iv, 0.5 mg/kg, SD rat): 7940 ng·h/mL
- Cmax ([12]; iv, 0.5 mg/kg, SD rat): 2880 ng/mL
- half-life ([12]; iv, 0.5 mg/kg): 3.36 h
- Tmax ([12]; iv, 0.5 mg/kg, SD rat): 0.03 h
- AUC(0-inf) ([12]; po, 5 mg/kg, SD rat): 65300 ng·h/mL
- Cmax ([12]; po, 5 mg/kg, SD rat): 6020 ng/mL
- half-life ([12]; po, 5 mg/kg): 3.04 h
- Tmax ([12]; po, 5 mg/kg, SD rat): 2.33 h

Structure (SMILES): [2H]C([2H])([2H])n1cnc(Cn2c(=O)n(COC(=O)OC(C)C)/c(=N\c3cc4cn(C)nc4cc3Cl)n(Cc3cc(F)c(F)cc3F)c2=O)n1 [Compound I-19]
- AUC(0-inf) ([12]; po, 5 mg/kg, SD rat): 70900 ng·h/mL
- Cmax ([12]; po, 5 mg/kg, SD rat): 6180 ng/mL
- half-life ([12]; po, 5 mg/kg): 2.91 h
- Tmax ([12]; po, 5 mg/kg, SD rat): 3.33 h

Structure (SMILES): O=c1nc(NO)ccn1[C@@H]1O[C@H](CO)[C@@H](O)[C@H]1O [EIDD-1931]
- CC50 [10]: >10 microns
